Tested on: 388556-164-R-J1-PDC complex spheroid viability
Test: Anticancer human tumor 388556-164-R-J1-PDC patient-derived colon adenocarcinoma cell line growth inhibition [RAS]
Details: for viability, T/C: stronger effect = lower value
Description: RAS pathway inhibitors in Combinations in Complex Spheroids
A high-throughput screen of multi-cell type tumor spheroids was designed to identify active combinations of RAS pathway inhibitors and targeted small molecules. Complex spheroids include a stromal component modeled by human endothelial cells (HUVEC) and fibroblasts modeled by human mesenchymal stem cells (MSCs). The concentration ranges selected for each drug and investigational agent were based upon clinically achievable concentrations if the clinical Cmax of the agent was known.
Compounds. The drugs and investigational agents: abemaciclib (NSC768073), cobimetinib (NSC768068), divarasib (GDC6063, NSC841802), docetaxel (NSC628503), GDC-1971 (RLY-1971, NSC841576), gemcitabine (NSC613327), inavolisib (NSC800729), ipatasertib (NSC767898), KB-0742 (NSC834161), MRTX-1133 (NSC836407), osimertinib (NSC779217), RMC-4630 (NSC839698), RMC-6236 (NSC851965), RMC-6291 (NSC852671), Ro-3306 (NSC812927), sapanisertib (NSC764658), SN-38 (NSC673596), staurosporine (NSC755774), SY5609 (NSC837396), and tovorafenib (DAY101, NSC766906), were obtained from the National Cancer Institute (NCI) Developmental Therapeutics Program Chemical Repository. The FDA-approved anticancer drug set is available from the NCI Developmental Therapeutics Program. […] The stock solutions were prepared in dimethyl sulfoxide (DMSO, Sigma-Aldrich, St. Louis, MO, cat. D2650) at 800-fold the tested concentration and stored at -70 degrees C prior to their use. All drugs and investigational agents were tested over a range starting from a high concentration at or near the clinical Cmax and decreasing in half-log increments. If the clinical Cmax for an agent had not been determined, the highest concentration tested was 10 microM.
Cell Culture. All cells were maintained in an incubator at 37 degrees C and 5% CO2 with 95% humidity. The PDC lines were cultured according to standard operating procedures established by the NCI PDMR. All PDCs were thawed and cultured in Matrigel-coated flasks prepared with a working solution of 1X Ham's F-12 nutrient mix, without supplementation (Invitrogen, Waltham, MA, cat. 11765054), 100 U/mL penicillin-streptomycin (Invitrogen, cat. 15140122), and 2.5% Matrigel (Corning Inc., Corning, NY, cat. 354248) for the first three passages. The 362531-283-R-J2-PDC and 782815-120-R-J1-PDC lines were cultured in 6C/Colon 1B media, which includes advanced DMEM/F-12 (Thermo Fisher Scientific, cat. 12634028), 10 mM HEPES (Thermo Fisher Scientific, cat. 15630080), 1X GlutaMAX supplement (Thermo Fisher Scientific, cat. 35050061), 0.1 mg/mL primocin (InvivoGen, San Diego, CA, cat. ant-pm-2), 10% defined fetal bovine serum, heat inactivated (HyClone Laboratories Inc., Logan, UT, cat. SH30070.03HI), 50% L-WRN conditioned media (ATCC, cat. CRL-3276), 1.25 mM N-Acetyl-L-cysteine (Sigma-Aldrich, cat. A9165), 10 mM nicotinamide (Sigma-Aldrich, cat. N0636), 1X B-27 supplement (Thermo Fisher Scientific, cat. 17504044), 1X N-2 supplement (Thermo Fisher Scientific, cat. 17502048), 50 ng/mL human EGF (Thermo Fisher Scientific, cat. PHG0311), and 10 microM Y-27632 dihydrochloride (Tocris Bioscience, cat. 1254). The K12877-001-R-J1-PDC line was cultured in 6I media, which includes all 6C/Colon 1B media plus 10 ng/mL human FGF-10 (PeproTech, cat. 100-26), 1 ng/mL human FGF-2 (PeproTech, cat. 100-18B), 1 µM prostaglandin E2 (Tocris Bioscience, cat. 2296), […] hydrocortisone (Sigma-Aldrich, cat. H4001), and […] bovine insulin (Sigma-Aldrich, cat. I6634). The K86415-001-R-J1-PDC line was cultured in 6D media, which includes all 6C/Colon 1B media components minus the L-WRN conditioned media. The 485176-168-R4-J1-PDC was cultured in PANC media, which includes all 6C/Colon 1B media plus 100 ng/mL human FGF-10 (PeproTech, cat. 100-26), 500 nM SB-431542 (Selleckchem, cat. S1067), and 10 nM gastrin (Tocris Bioscience, cat. 3006). […]
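Further: spheroids exposed to compound for 7 days before readout.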
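Wherever viability, T/C is given: 100% = DMSO vehicle control luminescence.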

## CCc1c2c(nc3ccc(O)cc13)-c1cc3c(c(=O)n1C2)COC(=O)[C@]3(O)CC + C=CC(=O)N1CCN(c2nc(OCC3CCCN3C)nc3c(F)c(-c4nc(N)cc(C)c4C(F)(F)F)c(Cl)cc23)C(C)C1
Curve of first compound, second compound 0.00316 µM
  IC50: 98.4 nM
Curve of first compound, second compound 0.01 µM
  IC50: 119 nM
Curve of first compound, second compound 0.0316 µM
  IC50: 86.1 nM
Curve of first compound, second compound 0.1 µM
  IC50: 74.8 nM
Curve of first compound, second compound 0.316 µM
  IC50: 97.2 nM
Curve of first compound, second compound 1 µM
  IC50: 96.3 nM
Second compound 0.00316 µM, first compound 0.000949 µM
  viability, T/C: 103%
Second compound 0.00316 µM, first compound 0.003 µM
  viability, T/C: 97.2%
Second compound 0.00316 µM, first compound 0.00949 µM
  viability, T/C: 78%
Second compound 0.00316 µM, first compound 0.03 µM
  viability, T/C: 67.3%
Second compound 0.00316 µM, first compound 0.0949 µM
  viability, T/C: 53.7%
Second compound 0.00316 µM, first compound 0.3 µM
  viability, T/C: 29.9%
Second compound 0.01 µM, first compound 0.000949 µM
  viability, T/C: 110%
Second compound 0.01 µM, first compound 0.003 µM
  viability, T/C: 95.5%
Second compound 0.01 µM, first compound 0.00949 µM
  viability, T/C: 81.4%
Second compound 0.01 µM, first compound 0.03 µM
  viability, T/C: 72%
Second compound 0.01 µM, first compound 0.0949 µM
  viability, T/C: 58.3%
Second compound 0.01 µM, first compound 0.3 µM
  viability, T/C: 31.9%
Second compound 0.0316 µM, first compound 0.000949 µM
  viability, T/C: 99.9%
Second compound 0.0316 µM, first compound 0.003 µM
  viability, T/C: 98.8%
Second compound 0.0316 µM, first compound 0.00949 µM
  viability, T/C: 80.2%
Second compound 0.0316 µM, first compound 0.03 µM
  viability, T/C: 65.2%
Second compound 0.0316 µM, first compound 0.0949 µM
  viability, T/C: 51.4%
Second compound 0.0316 µM, first compound 0.3 µM
  viability, T/C: 23.3%
Second compound 0.1 µM, first compound 0.000949 µM
  viability, T/C: 102%
Second compound 0.1 µM, first compound 0.003 µM
  viability, T/C: 93.3%
Second compound 0.1 µM, first compound 0.00949 µM
  viability, T/C: 74.4%
Second compound 0.1 µM, first compound 0.03 µM
  viability, T/C: 61.3%
Second compound 0.1 µM, first compound 0.0949 µM
  viability, T/C: 51%
Second compound 0.1 µM, first compound 0.3 µM
  viability, T/C: 27.2%
Second compound 0.316 µM, first compound 0.000949 µM
  viability, T/C: 106%
Second compound 0.316 µM, first compound 0.003 µM
  viability, T/C: 92.7%
Second compound 0.316 µM, first compound 0.00949 µM
  viability, T/C: 82.4%
Second compound 0.316 µM, first compound 0.03 µM
  viability, T/C: 67%
Second compound 0.316 µM, first compound 0.0949 µM
  viability, T/C: 50.5%
Second compound 0.316 µM, first compound 0.3 µM
  viability, T/C: 32.7%
Second compound 1 µM, first compound 0.000949 µM
  viability, T/C: 107%
Second compound 1 µM, first compound 0.003 µM
  viability, T/C: 103%
Second compound 1 µM, first compound 0.00949 µM
  viability, T/C: 75.8%
Second compound 1 µM, first compound 0.03 µM
  viability, T/C: 68.1%
Second compound 1 µM, first compound 0.0949 µM
  viability, T/C: 55.2%
Second compound 1 µM, first compound 0.3 µM
  viability, T/C: 28.8%

## C#Cc1c(F)ccc2cc(O)cc(-c3ncc4c(N5CC6CCC(C5)N6)nc(OCC56CCCN5CC(F)C6)nc4c3F)c12 (centres undefined)
Compound 0.0316 µM
  viability, T/C: 84.2% [middle of 8 runs]
Compound 0.1 µM
  viability, T/C: 75.7% [middle of 8 runs]
Compound 0.316 µM
  viability, T/C: 95.4% [middle of 8 runs]
Compound 1 µM
  viability, T/C: 93.8% [middle of 8 runs]
Compound 3.16 µM
  viability, T/C: 87.3% [middle of 7 runs]
Compound 10 µM
  viability, T/C: 70.4% [middle of 8 runs]
Compound alone, run of 09/09/2024
  IC50: > 10000 nM
